Source: patent US9302991B2, “Arylamide derivatives as TTX-S blockers” (RaQualia Pharma Inc., priority 2010, dated 2016)

Biological target: T1, human Nav1.7 channels (Homo sapiens, UniProt Q15858)
T1 construct: expressed in transfected cells; host or cells: CHO
Assay: FRET assay, human Nav1.7 (EFS on FDSS)
Type: cell-based
Settings: CHO cells expressing human Nav1.7, read-out: IC50 against Nav1.7
Description: The inhibitory activities of compounds against voltage gated sodium channels are determined by methodology well known in the art.
The ability of the aryl substituted carboxamide derivatives of the formula (I) to inhibit the NaV1.3, Nav1.7 and Nav1.5 channels is measured by Fluorescence Resonance Energy Transfer (FRET) assay and electrophysiology assay described below.
This screen is used to determine the effects of compounds on human Nav1.3, human Nav1.7, and human Nav1.5 channels, utilising electrical field stimulation (EFS) system in 96-well plate format on FDSS (Hamamatsu Photonics) platform. The change of membrane potential is monitored with FRET dye pair, oxonol (DiSBAC2(3)) and coumarin (CC2-DMPE).
CHO cells expressing human Nav1.7 channels are grown in T225 flasks, in a 5% CO2 humidified incubator to about 80% confluence. Media composition consists of HAM/F12 with Glutamax 1.10% FCS, 100 units/mL Penicillin and 100 microgram/mL Hygromycin.
Protocol: • Seed each cell lines (1×10^5 cells/well) into poly-D-lysine coated 96-well plates prior to experimentation. • Incubate at 37° C. in 5% CO2 for 24 hours. • Wash each well with assay buffer (140 mM NaCl, 4.5 mM KCl, 10 mM D-Glucose, 2 mM CaCl2, 1 mM MgCl2, 10 mM HEPES, pH 7.4 adjusted with NaOH) twice. • Add 1st loading solution containing 10 microM CC2-DMPE and 0.06% Pluronic F-127 in assay buffer. • Incubate the plate at room temperature in dark for 1 hour. • Remove 1st loading solution and added 2nd loading solution containing 15 microM DiSBAC2(3), 0.555 mM VABSC-1 and 0.004% Pluronic F-127 in assay buffer. • Place the plate under the dark at room temperature for 25 minutes. • Add compound solutions into the assay plate. • Set the assay plate in FDSS and placed an EFS device on the plate. • Measure EFS-induced fluorescent response by FDSS.
The data are analyzed and reported as normalized ratios of intensities measured at […]. The process of calculating these ratios is performed as follows:
This analysis is performed using a computerized specific program designed for FDSS generated data. Fluorescence ratio values are plotted using XLfit to determine an IC50 value for each compound.

T1 sequence (Q15858 whole entry): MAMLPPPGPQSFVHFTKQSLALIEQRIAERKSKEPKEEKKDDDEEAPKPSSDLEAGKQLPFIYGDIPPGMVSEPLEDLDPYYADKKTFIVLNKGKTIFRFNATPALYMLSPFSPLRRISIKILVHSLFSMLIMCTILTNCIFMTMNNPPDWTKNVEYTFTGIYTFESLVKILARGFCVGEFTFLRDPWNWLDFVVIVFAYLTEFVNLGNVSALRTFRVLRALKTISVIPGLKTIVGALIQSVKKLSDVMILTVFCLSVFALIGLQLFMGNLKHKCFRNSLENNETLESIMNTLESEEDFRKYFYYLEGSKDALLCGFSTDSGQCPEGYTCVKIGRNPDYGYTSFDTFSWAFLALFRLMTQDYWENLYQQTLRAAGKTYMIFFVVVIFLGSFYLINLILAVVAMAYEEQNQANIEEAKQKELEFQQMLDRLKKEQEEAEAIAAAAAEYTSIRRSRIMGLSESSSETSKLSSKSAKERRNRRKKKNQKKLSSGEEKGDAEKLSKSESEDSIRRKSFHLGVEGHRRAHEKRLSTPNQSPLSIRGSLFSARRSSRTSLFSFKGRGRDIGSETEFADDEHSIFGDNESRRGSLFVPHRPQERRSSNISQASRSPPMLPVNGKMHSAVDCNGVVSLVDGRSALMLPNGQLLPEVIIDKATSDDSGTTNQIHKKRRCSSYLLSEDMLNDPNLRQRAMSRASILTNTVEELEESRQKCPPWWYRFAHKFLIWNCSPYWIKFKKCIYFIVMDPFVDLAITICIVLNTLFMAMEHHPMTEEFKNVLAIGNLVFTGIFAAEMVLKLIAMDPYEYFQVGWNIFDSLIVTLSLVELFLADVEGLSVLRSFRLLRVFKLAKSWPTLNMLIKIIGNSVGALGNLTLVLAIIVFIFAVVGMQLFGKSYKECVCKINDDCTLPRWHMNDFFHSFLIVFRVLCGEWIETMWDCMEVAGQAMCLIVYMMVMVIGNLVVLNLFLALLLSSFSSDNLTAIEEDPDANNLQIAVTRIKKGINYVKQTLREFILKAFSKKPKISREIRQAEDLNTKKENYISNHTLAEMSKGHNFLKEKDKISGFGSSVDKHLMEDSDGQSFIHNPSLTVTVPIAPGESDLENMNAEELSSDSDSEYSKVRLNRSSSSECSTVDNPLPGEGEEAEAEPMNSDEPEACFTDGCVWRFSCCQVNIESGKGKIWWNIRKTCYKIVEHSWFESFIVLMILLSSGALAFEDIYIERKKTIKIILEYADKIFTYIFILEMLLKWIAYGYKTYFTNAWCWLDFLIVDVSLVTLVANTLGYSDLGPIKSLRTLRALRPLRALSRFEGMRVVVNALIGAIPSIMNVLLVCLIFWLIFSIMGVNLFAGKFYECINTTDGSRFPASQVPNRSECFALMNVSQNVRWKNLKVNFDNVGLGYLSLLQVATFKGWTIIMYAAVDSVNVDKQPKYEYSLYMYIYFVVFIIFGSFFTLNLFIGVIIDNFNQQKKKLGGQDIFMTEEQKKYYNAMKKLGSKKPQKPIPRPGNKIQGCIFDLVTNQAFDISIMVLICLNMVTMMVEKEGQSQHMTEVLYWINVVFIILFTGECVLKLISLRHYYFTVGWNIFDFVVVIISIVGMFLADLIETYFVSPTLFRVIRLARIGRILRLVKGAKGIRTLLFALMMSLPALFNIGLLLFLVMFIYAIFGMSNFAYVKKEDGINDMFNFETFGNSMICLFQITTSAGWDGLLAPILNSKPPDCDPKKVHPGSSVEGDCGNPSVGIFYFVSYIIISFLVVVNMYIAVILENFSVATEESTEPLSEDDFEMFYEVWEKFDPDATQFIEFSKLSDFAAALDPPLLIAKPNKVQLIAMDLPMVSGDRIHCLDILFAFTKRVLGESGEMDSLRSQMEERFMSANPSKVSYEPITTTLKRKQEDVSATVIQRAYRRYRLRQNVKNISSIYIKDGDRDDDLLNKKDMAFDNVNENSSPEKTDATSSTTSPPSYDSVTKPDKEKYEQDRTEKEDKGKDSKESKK

IC50, < 1000 nM:
Cc1cc(C(=O)NCc2cnc(OCC(F)(F)F)c(C)c2)nc(NC(=O)C(C)C)n1 [Example 366, 2-isobutyramido-6-methyl-N-((5-methyl-6-(2,2,2-trifluoroethoxy)pyridin-3-yl)methyl)pyrimidine-4-carboxamide]
CC(NC(=O)c1ccnc(NC(=O)C2CC2)c1)c1ccc(OCC(C)(F)F)nc1 (single isomer, unassigned) [Example 782, 2-(cyclopropanecarboxamido)-N-(1-(6-(2,2-difluoropropoxy)pyridin-3-yl)ethyl)isonicotinamide]
Cc1cc(C(=O)N[C@H](C)c2cccc(C(F)(F)F)c2)cc(NC(=O)C2CC2)n1 (single isomer, unassigned) [Example 838]
CCC(=O)Nc1cc(C(=O)NC(C)c2ccc(OCCC(F)(F)F)nc2)cc(C)n1 (single isomer, unassigned) [Example 140, 2-methyl-6-propionamido-N-(1-(6-(3,3,3-trifluoropropoxy)pyridin-3-yl)ethyl)isonicotinamide]
CC(=O)Nc1cc(C(=O)NCc2ccc(OCC(F)F)c(C)c2)ccn1 [Example 988, 2-acetamido-N-(4-(2,2-difluoroethoxy)-3-methylbenzyl)isonicotinamide]
CCC(=O)Nc1cc(C(=O)NC(C)c2cnc(OCC(F)F)c(C)c2)ccn1 (single isomer, unassigned) [Example 552, N-(1-(6-(2,2-difluoroethoxy)-5-methylpyridin-3-yl)ethyl)-2-propionamidoisonicotinamide]
CC(=O)Nc1cc(C(=O)NC(C)c2ccc(OCC(F)(F)C(F)(F)F)nc2)ccn1 (single isomer, unassigned) [Example 924, 2-acetamido-N-(1-(6-(2,2,3,3,3-pentafluoropropoxy)pyridin-3-yl)ethyl)isonicotinamide]
Cc1cc(C(=O)NCc2cccc(C(F)(F)F)c2Cl)cc(NC(=O)C(C)C)n1 [Example 878, N-(2-chloro-3-(trifluoromethyl)benzyl)-2-isobutyramido-6-methylisonicotinamide]
CCC(=O)Nc1cc(C(=O)N(C)Cc2ccc(OCC(F)(F)F)nc2OC)cc(C)n1 [Example 291, N-((2-methoxy-6-(2,2,2-trifluoroethoxy)pyridin-3-yl)methyl)-N,2-dimethyl-6-propionamidoisonicotinamide]
Cc1cc(C(C)NC(=O)c2ccnc(NC(=O)C3CC3)c2)cnc1OCC(F)F (single isomer, unassigned) [Example 553, 2-(cyclopropanecarboxamido)-N-(1-(6-(2,2-difluoroethoxy)-5-methylpyridin-3-yl)ethyl)isonicotinamide]
CCOc1nc(OCC(F)(F)F)ccc1CNC(=O)c1ccnc(NC(C)=O)c1 [Example 332, 2-acetamido-N-((2-ethoxy-6-(2,2,2-trifluoroethoxy)pyridin-3-yl)methyl)isonicotinamide]
CC(=O)Nc1cc(C(=O)NCc2cnc(OCC(F)F)cc2C)cc(C)n1 [Example 778, 2-acetamido-N-((6-(2,2-difluoroethoxy)-4-methylpyridin-3-yl)methyl)-6-methylisonicotinamide]
COc1cc(CNC(=O)c2cc(C)nc(NC(C)=O)c2)ccc1OCC(F)(F)F [Example 884, 2-acetamido-N-(3-methoxy-4-(2,2,2-trifluoroethoxy)benzyl)-6-methylisonicotinamide]
CC(=O)Nc1cc(C(=O)NC(C)c2cnc(OCC(F)(F)C(F)F)c(C)c2)ccn1 (single isomer, unassigned) [Example 903, 2-acetamido-N-(1-(5-methyl-6-(2,2,3,3-tetrafluoropropoxy)pyridin-3-yl)ethyl)isonicotinamide]
CCC(=O)Nc1cc(C(=O)NCc2cnc(OCC(F)(F)F)c(OC)c2)cc(C)n1 [Example 270]
CC(NC(=O)c1ccnc(NC(=O)C2CC2)n1)c1cnc(OCC(F)(F)F)c(Cl)c1 (single isomer, unassigned) [Example 211, N-(1-(5-chloro-6-(2,2,2-trifluoroethoxy)pyridin-3-yl)ethyl)-2-(cyclopropanecarboxamido)pyrimidine-4-carboxamide]
COc1cc(C(C)NC(=O)c2cc(C)nc(NC(=O)C3CC3)n2)cnc1OCC(F)(F)F (single isomer, unassigned) [Example 194, 2-(cyclopropanecarboxamido)-N-(1-(5-methoxy-6-(2,2,2-trifluoroethoxy)pyridin-3-yl)ethyl)-6-methylpyrimidine-4-carboxamide]
Cc1cc(C(C)NC(=O)c2ccnc(NC(=O)C3CC3)n2)ccc1OCC(F)F (single isomer, unassigned) [Example 863, 2-(cyclopropanecarboxamido)-N-(1-(4-(2,2-difluoroethoxy)-3-methylphenyl)ethyl)pyrimidine-4-carboxamide]
CCC(=O)Nc1nccc(C(=O)NC(C)c2cnc(OCC(F)(F)F)c(Cl)c2)n1 (single isomer, unassigned) [Example 210, N-(1-(5-chloro-6-(2,2,2-trifluoroethoxy)pyridin-3-yl)ethyl)-2-propionamidopyrimidine-4-carboxamide]
Cc1cc(C(=O)NC(C)c2cccc(OCC(F)(F)F)c2)cc(NC(=O)C(C)C)n1 (single isomer, unassigned) [Example 881, 2-isobutyramido-6-methyl-N-(1-(3-(2,2,2-trifluoroethoxy)phenyl)ethyl)isonicotinamide]
CCOc1cc(CNC(=O)c2cc(C)nc(NC(C)=O)c2)cnc1OCC(F)(F)F [Example 264, 2-acetamido-N-((5-ethoxy-6-(2,2,2-trifluoroethoxy)pyridin-3-yl)methyl)-6-methylisonicotinamide]
CC(NC(=O)c1ccnc(NC(=O)C2CC2)c1)c1ccc(OCC(F)(F)F)nc1 (single isomer, unassigned) [Example 9, 2-(cyclopropanecarboxamido)-N-(1-(6-(2,2,2-trifluoroethoxy)pyridin-3-yl)ethyl)isonicotinamide]
CCCC(=O)Nc1cc(C(=O)NC(C)c2cnc(OCC(F)(F)C(F)F)c(C)c2)ccn1 (single isomer, unassigned) [Example 928, 2-butyramido-N-(1-(5-methyl-6-(2,2,3,3-tetrafluoropropoxy)pyridin-3-yl)ethyl)isonicotinamide]
CC(=O)Nc1cc(C(=O)NC(C)c2cnc(OCC(F)F)c(C)c2)ccn1 (single isomer, unassigned) [Example 551, 2-acetamido-N-(1-(6-(2,2-difluoroethoxy)-5-methylpyridin-3-yl)ethyl)isonicotinamide]
CCOc1nc(OCC(F)(F)F)ccc1CNC(=O)c1cc(C)nc(NC(C)=O)n1 [Example 338, 2-acetamido-N-((2-ethoxy-6-(2,2,2-trifluoroethoxy)pyridin-3-yl)methyl)-6-methylpyrimidine-4-carboxamide]
COc1nc(OCC(F)F)ccc1C(C)NC(=O)c1cc(C)nc(NC(=O)C(C)C)c1 (single isomer, unassigned) [Example 1166, N-(1-(6-(2,2-difluoroethoxy)-2-methoxypyridin-3-yl)ethyl)-2-isobutyramido-6-methylisonicotinamide]
CC(=O)Nc1cc(C(=O)NCc2cnc(OCC(F)(F)F)c(-c3ccco3)c2)ccn1 [Example 770, 2-acetamido-N-((5-(furan-2-yl)-6-(2,2,2-trifluoroethoxy)pyridin-3-yl)methyl)isonicotinamide]
CCc1cc(CNC(=O)c2ccnc(NC(=O)C3CC3)c2)cnc1OCC(F)F [Example 931, 2-(cyclopropanecarboxamido)-N-((6-(2,2-difluoroethoxy)-5-ethylpyridin-3-yl)methyl)isonicotinamide]
COc1cc(CNC(=O)c2ccnc(NC(=O)C3CC3)n2)cnc1OCC(F)(F)F [Example 444, 2-(cyclopropanecarboxamido)-N-((5-methoxy-6-(2,2,2-trifluoroethoxy)pyridin-3-yl)methyl)pyrimidine-4-carboxamide]
Cc1cc(C(=O)NCc2cnc(OCC(F)(F)F)c(Cl)c2)nc(NC(=O)C2CC2)n1 [Example 1147, N-((5-chloro-6(2,2,2-trifluoroethoxy)pyridin-3-yl)methyl)-2-(cyclopropanecarboxamido)-6-methylpyrimidine-4-carboxamide]
